Test results as given in PubChem BioAssay AID720632 (Broad Institute, 2013).
Active and inactive are the calls of the source. How the calls were made is not given here.

Molecular target: Caspase-6 (Homo sapiens) (UniProt P55212)
Test: inhibition of CASP6 peptide cleavage – biochemical, VEID-R110 fluorescence, cherry-pick, dose response (AID 720632)
Details: caspase-6, VEID-R110 fluorogenic substrate; at 23.5 µM (top of the series)

Chain of Caspase-6 (Homo sapiens) (P55212 24-179 limits assumed): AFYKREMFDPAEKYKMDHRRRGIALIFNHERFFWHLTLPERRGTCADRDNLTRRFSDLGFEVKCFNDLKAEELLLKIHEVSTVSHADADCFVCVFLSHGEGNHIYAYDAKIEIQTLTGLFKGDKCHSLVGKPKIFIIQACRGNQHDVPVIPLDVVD
Chain of Caspase-6 (Homo sapiens) (P55212 194-293 limits assumed): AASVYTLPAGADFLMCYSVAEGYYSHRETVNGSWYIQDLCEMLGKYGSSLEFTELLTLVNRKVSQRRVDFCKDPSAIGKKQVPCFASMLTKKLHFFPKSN

| SMILES | activity change, negative = inhibition |
| --- | --- |
| CO[C@H]1CN(C)C(=O)c2ccc(NC(=O)c3ccccc3)cc2OC[C@@H](C)N(C(=O)C2CC2)C[C@H]1C | inactive |

Same assay, conditions: caspase-6, VEID-R110 fluorogenic substrate; at 26 µM (top of the series)

| SMILES | activity change, negative = inhibition |
| --- | --- |
| Cc1ccccc1C(=O)O/N=C(\N)c1ccccc1 | inactive |
| O=C(OCc1ccccc1)N1CCCC2CC1c1ccccc12 (stereo not drawn) | inactive |
| CCC1CCc2sc(C(=O)NNC(=O)c3ccncc3)cc2C1 (stereo not drawn) | inactive |
| S=c1[nH]c2cc(Cl)c3cccnc3c2o1 | inactive |
| CN1CC2([N+](=O)[O-])CC=C(OCCO)C([N+](=O)[O-])(C1)C2 (stereo not drawn) | inactive |
| CCN(CC)c1c([N+](=O)[O-])c(=O)n(CC)c2ccccc12 | inactive |
| CO[C@@H]1CN(C)C(=O)c2ccc(NC(C)=O)cc2OC[C@@H](C)N(C(=O)CC2CC2)C[C@@H]1C | inactive |
| CCC(C)Nc1nc2c(C)cccn2c(=O)c1C=Nc1ccc(OC)cc1 (stereo not drawn) | inactive |
| CCN(C(=O)COC(=O)CNC(=O)c1ccc2ccccc2c1)C1CCS(=O)(=O)C1 (stereo not drawn) | inactive |
| CCC1=NN(C(=O)c2ccc(Cl)cc2)C(O)(c2ccc(C)cc2)C1 (stereo not drawn) | inactive |
| COc1ccc(S(=O)(=O)N2CCOCC2)cc1C(=O)NCC(c1ccccc1)c1ccccc1 | inactive |
| CN1CCN(NC(=O)Nc2ccc(F)cc2)CC1 | inactive |
| COc1ccccc1N(CC(=O)NCCSCc1ccccc1Cl)S(C)(=O)=O | inactive |
| COc1cccc(C(=O)OC(C)C(=O)NCC2CCCCC2)c1 (stereo not drawn) | inactive |
| CCC(NS(=O)(=O)c1ccc(C)cc1)C(=O)N1CCOCCOCCOCC1 (stereo not drawn) | inactive |
| Cc1ccc(NC(=O)Nc2nnc(-c3ccccc3)o2)cc1 | inactive |
| COCC(=O)Nc1ccc2c(c1)OC[C@H](C)N(CC1CC1)C[C@H](C)[C@H](OC)CN(C)C2=O | inactive |
| CN1N=C(C(C)(C)C)CSC1=Nc1ccccc1 | inactive |
| COCC(=O)Nc1ccc2c(c1)OC[C@@H](C)N(CC1CC1)C[C@H](C)[C@@H](OC)CN(C)C2=O | inactive |
| Nc1ccc(Sc2ccccc2Cl)nc1 | inactive |
| C=CCNC(=O)COc1ccccc1C#N | inactive |

| SMILES | activity change, negative = inhibition |
| --- | --- |
| O=C(Nc1ccccc1)c1nc[nH]c1C(=O)Nc1ccccc1F | inactive |
| COc1cc2sc(C)nc2c2ccccc12 | inactive |
| O=C(NCCc1ccccc1)c1cccc2c(-c3ccc(F)c(F)c3)coc12 | inactive |
| NN1C(=O)/C(=C2/Sc3ccccc3N2CCCS(=O)(=O)O)SC1=S | inactive |
| O=C(Nc1ccc(NC(=O)C2CC2)cc1)c1cccs1 | inactive |
| O=C(Nc1ccc2c(c1)OCO2)C1Cc2c(-c3ccc4c(c3)OCO4)ccnc2O1 (stereo not drawn) | inactive |
| O=C(NCC(c1ccco1)N1CCc2ccccc21)c1cccc([N+](=O)[O-])c1 (stereo not drawn) | inactive |
| CCOC(=O)[C@H]1[C@H]2COc3ccc(Cl)cc3[C@@H]2N2C(=O)CN(Cc3ccc(C)cc3)C(=O)[C@@]12C | inactive |
| COCCNc1nc(-c2ccc(OC)cc2)c(-c2ccc(OC)cc2)s1 | inactive |
| O=C1Cc2cc(S(=O)(=O)N3CCN(c4ccc(C(=O)O)cc4)CC3)ccc2N1 | inactive |
| COc1ccc2c(C#N)c3ccccn3c2c1 | inactive |
| CSc1ccccc1NC(=O)Nc1ccccc1 | inactive |
| CO[C@@H]1CN(C)C(=O)c2ccc(NC(=O)C3CC3)cc2OC[C@@H](C)N(C)C[C@H]1C | inactive |
| CC(C)CCn1c(=O)c2ccccc2n2c(CCC(=O)NCC3CCCO3)nnc12 (stereo not drawn) | inactive |
| CO[C@@H]1CN(C)C(=O)c2ccc(NC(=O)C3CC3)cc2OC[C@@H](C)N(Cc2ccccc2)C[C@H]1C | inactive |
| O=C(CCN1C(=O)NC2(CCCC2)C1=O)Nc1cccc(S(=O)(=O)N2CCOCC2)c1 | inactive |
| O=C([C@H]1[C@H](CO)[C@H]2Cn3c(cccc3=O)[C@H]2N1Cc1cc(F)ccc1F)N1CCOCC1 | inactive |
| CO[C@@H]1CN(C)C(=O)c2ccc(NC(=O)c3ccccc3)cc2OC[C@H](C)N(C(=O)C2CC2)C[C@@H]1C | inactive |
| C[C@@H]1CN([C@@H](C)CO)C(=O)Cc2cc(N(C)C)ccc2O[C@@H]1CN(C)Cc1ccccc1 | inactive |
| CN1C(=O)CC(Sc2ccccc2C(=O)O)C1=O (stereo not drawn) | inactive |
| Cc1ccccc1NC(=O)C1CCCN(S(=O)(=O)c2cnc[nH]2)C1 (stereo not drawn) | inactive |

| SMILES | activity change, negative = inhibition |
| --- | --- |
| CC1CCN(C(=O)Cn2cc(C(F)(F)F)ccc2=O)c2ccccc2S1 (stereo not drawn) | inactive |
| CCCCn1nnnc1C(CCSC)N1CCC(n2c(=O)[nH]c3ccccc32)CC1 (stereo not drawn) | inactive |
| CCCC(=O)Nc1ccc2c(c1)OC[C@H](C)NC[C@H](C)[C@H](OC)CN(C)C2=O | inactive |
| CCC1(C)Cc2c(C#N)c(N)n(-c3ccccc3)c(=S)c2CO1 (stereo not drawn) | inactive |
| CCOc1cc2c(cc1OC)C(c1cccc([N+](=O)[O-])c1)NCC2 (stereo not drawn) | inactive |
| CCc1noc(C)c1C(=O)Nc1ccc(S(=O)(=O)N2CCCC(C)C2)cc1 (stereo not drawn) | inactive |
| CO[C@@H]1CN(C)C(=O)c2ccc(NC(=O)C3CC3)cc2OC[C@@H](C)N(Cc2ccccc2)C[C@@H]1C | inactive |
| C[C@H]1CN([C@@H](C)CO)C(=O)CCCn2cc(nn2)CO[C@@H]1CN(C)C(=O)CCC(F)(F)F | inactive |
| COc1cccc(C(=O)N2CCN(Cc3ccc(OC)cc3OC)CC2)c1 | inactive |
| C/C(=N/NS(=O)(=O)c1ccc(Cl)cc1)c1cccc(NC(=O)c2ccncc2)c1 | inactive |
| COc1ccc(OC)c(N/C(=N/c2nc(C)cc(C)n2)NC(C)=O)c1 | inactive |
| CC(=O)Oc1cc(C(=O)OCC(=O)N2CCc3ccccc3C2)cc(OC(C)=O)c1OC(C)=O | inactive |
| COc1ccc(NC(=O)C(F)(OC)C(F)(F)F)c(OC)c1 (stereo not drawn) | inactive |
| COc1cccc(NC(=O)Cn2c(=O)n(C)c(=O)c3sc4c(c32)COC(C)(C)C4)c1 | inactive |
| C=CCC(NCc1ccccc1)c1ccc(Cl)cc1 (stereo not drawn) | inactive |
| O=C(c1nc2ccccn2c1CN1CCCC(c2nc3ccccc3o2)C1)N1CCCC1 (stereo not drawn) | inactive |
| CCCc1cc(-c2n[nH]c(C(=O)OCC)c2-c2cscn2)c(O)cc1O | inactive |
| CC(C)(C)NC(=O)C1CCN(S(=O)(=O)c2cccc3nsnc23)CC1 | inactive |
| Nc1ccccc1Sc1ccc(C(=O)c2ccccc2C(=O)O)cc1[N+](=O)[O-] | inactive |
| O=C(CCCCCn1c(=S)[nH]c2cc3c(cc2c1=O)OCO3)N1CCN(c2ccc(F)cc2)CC1 | inactive |
